In paper PMC9233891 (Bioorganic Chemistry, 2022):

Tests used:
[1] = tested on: S protein / ACE2 interaction; conditions: previous study; cited from earlier work
ancestral SARS-CoV-2 = assay: microbe, parasite or virus in culture; type: cell-based; conditions: Severe acute respiratory syndrome coronavirus 2, Vero, 24 h, read-out: IC50, inhibition of SARS-CoV-2 infection

SMILES	inhibition of the interaction between the S protein and ACE2 [1]	IC50 (ancestral SARS-CoV-2)
C[C@@H]1O[C@@H](O[C@H]2[C@H](OC(=O)[C@]34CCC(C)(C)C[C@H]3C3=CC[C@@H]5[C@@]6(C)C[C@H](O)[C@H](O[C@@H]7O[C@H](CO)[C@@H](O)[C@H](O)[C@H]7O)C(CO)(CO)[C@@H]6CC[C@@]5(C)[C@]3(C)C[C@H]4O)OC[C@H](O)[C@@H]2O)[C@H](O)[C@H](O)[C@H]1O[C@@H]1OC[C@@H](O)[C@H](O[C@@H]2OC[C@](O)(CO)[C@H]2O)[C@H]1O [Platycodin D, platycodin D]	does not inhibit the interaction between the S protein and ACE2	
CCN(CC)CCCC(C)Nc1ccnc2cc(Cl)ccc12 (stereo not drawn) [chloroquine]		5.56 µM
CCC(CC)COC(=O)[C@H](C)N[P@](=O)(OC[C@H]1O[C@@](C#N)(c2ccc3c(N)ncnn23)[C@H](O)[C@@H]1O)Oc1ccccc1 [remdesivir]		4.67 µM
